# Laboratory results reported in patent publication US5942511A, “Allylthiopyridazine derivatives and process for preparing the same” (Kwon; Soon Kyoung, priority 1998, dated 1999).
# What was measured:
# [1] = system: serum ALT (alanine aminotransferase); experiment: Effect of inhibiting hepatic disorder induced by carbon tetrachloride: serum ALT; assay type: in vivo, male ICR mice; conditions: CCl4 100 μl/kg i.p., compound 50 mg/kg per day oral, 3 days
# Excerpt: First, the effects of allylthiopyridazine derivative of formula (I) for prevention and treatment of hepatic diseases was examined using carbon tetrachloride model and acetaminophen model.
# Carbon tetrachloride model [see, Philippe letteron et al., Biochemical Pharmacology, 39, 12, 2027-2034, 1990] is most frequently used as an experimental model of hepatic disorder and has been established on the basis of the fact that carbon tetrachloride is converted into trichloromethyl free radical (CCl3 .), a highly toxic metabolite, by the action of cytochrome P-450 in body. This metabolite strongly binds with thiol group of liver microsomal membrane protein to produce a lipid radical, which is then converted into peroxy radical in the presence of oxygen, thereby stimulating the peroxidation reaction of membrane lipid. That is, carbon tetrachloride inhibits protein biosynthesis in liver, increases blood ALT (alanine aminotransferase) and causes centrilobular necrosis of liver cells.
# In the present invention, the inhibiting effect of the compound of formula (I) on hepatic disorder, induced by carbon tetrachloride and acetaminophene, was determined after oral administration of the novel compound according to the present invention to mouse as the experimental animal for 3 days. The degree of liver damage in respective experimental animal was determined by measuring ALT and LDH levels in blood [see, Biol. Pharm. Bull., 20, 4, 381-385, 1997; Toxicology and Applied Pharmacology, 95, 1-11, 1988], and further by removing the liver, staining (×100) the liver with hematoxylin and eosin and then observing with microscope to examine the degree of hepatocyte necrosis.
# Effect of inhibiting hepatic disorder induced by carbon tetrachloride
# The liver protective effect of the compound according to the present invention was examined according to the known method [see, Philippe letteron et al., Biochemical Pharmacology, 39, 12, 2027-2034, 1990] as specifically described below.
# The compound according to the present invention was suspended in corn oil and the resulting suspension was administered in an amount of 1.0 ml/kg. Each group was composed of 3 to 10 male ICR mice (5-6 weeks) and the test compound was orally administered for 3 days in the dose of 50 mg/kg per day. After the test compound was administered, carbon tetrachloride was intraperitoneally injected in an amount of 100 μl/kg. In this experiment, silymarin was used as the comparative compound. After 24 hours from administration of carbon tetrachloride, blood was taken from the test animal by cardiac perforation and ALT value in serum was determined. The result obtained is described in the following Table 2 (in which ALT value is represented by mean±SE). The ALT unit in serum was determined by centrifuging blood to separate serum as the supernatant, and then the separated serum were subjected to Reitman-Frankel method by means of a commercially available kit (BC101-O,P, Youngdong Pharm.). That is, DL-alanine and α-ketoglutarate were used as the substrate solution to which 2,4-dinitrophenylhydrazine was added to produce hydrazone. Then, sodium hydroxide was added to hydrazone to colorize and then the absorbance was measured at 505 nm.
# [2] = system: ICR male mouse; experiment: Acute toxicity test, single oral administration; assay type: in vivo; conditions: 14 days
# Method: (§1) Moreover, as a result of an acute toxicity test using mouse to evaluate the general toxicity of the compound according to the present invention, when the compound is single administered via oral route, the LD50 value of the respective compound is 3.5 g/kg or more. Therefore, the compound of the present invention is determined as being very safe.
# (§2) The acute toxicity test was carried out to quantitatively and qualitatively examine the toxicity which occurs within a short period of time after a single administration of the test compound to the experimental animal.
# (§3) In this experiment, the acute toxicity test was conducted using 5-6 weeks ICR male mouse obtained from Korea Experimental Animal Center. From 6 p.m., the day before administration of the test compound, to 9 a.m. the day on which the test compound is administered, mouse was fasted. The test compound was ground and suspended in corn oil and then administered in the dose of 1000 to 6000 mg/kg to the experimental animal. For each dose, 6 animals were used. The test compound was prepared and used on that day, and was single administered via oral route by means of a needle. After the compound of Example 4, as typical example of the compound according to the present invention was administered, the survived and died animals were observed during 14 days.
# [3] = Acute toxicity test, single oral administration; assay type: in vivo; conditions: in vivo, mouse, Litchfield-Wilcoxon method, 95% confidence interval 3.26-4.78 g/kg (Example 4)
# Method: as §1, §2, §3
smiles,measurement,setting,value
"C=CCSc1ccc(OC)nn1 [Example 4, 3-methoxy-6-allylthiopyridazine]",Inhibiting rate (serum ALT),[1],57%
same,Serum ALT value,[1]; mean±SE,3966 ± 1116 KA unit/l
same,D/T (number of died animals / number of test animals),[2]; 1000 mg/kg,0/6
same,D/T (number of died animals / number of test animals),[2]; 2000 mg/kg,0/6
same,D/T (number of died animals / number of test animals),[2]; 3000 mg/kg,1/6
same,D/T (number of died animals / number of test animals),[2]; 4000 mg/kg,3/6
same,D/T (number of died animals / number of test animals),[2]; 5000 mg/kg,4/6
same,D/T (number of died animals / number of test animals),[2]; 6000 mg/kg,6/6
same,LD50 at 336 h,[3],3950 mg/kg
